Legend:
H9/HIV-1IIIB = conditions: previously reported; cited from earlier work
[1] = tested on: HIV-1 Env pseudovirus BG505-T332N; conditions: subtype A, previously published ref 18; cited from earlier work
[2] = tested on: HIV-1 Env pseudovirus pCAAN5342 clone A2; conditions: pCAAN5342 clone A2, subtype B, NIH # 11038; previously published ref 18; cited from earlier work
[3] = tested on: HIV-1 Env pseudovirus ZM214M.PL15; conditions: ZM214M.PL15, subtype C, NIH # 11310; previously published ref 18; cited from earlier work
[4] = tested on: HIV-1 Env pseudovirus QB099.391M.ENV.C8; conditions: QB099.391M.ENV.C8, subtype C, NIH # 11909; previously published ref 18; cited from earlier work
[5] = tested on: HIV-1 Env pseudovirus QH0692, clone 42; conditions: QH0692, clone 42, subtype B, NIH # 11018; previously published ref 18; cited from earlier work
[6] = tested on: HIV-1 Env pseudovirus BF535.W6M.ENV.A1; conditions: BF535.W6M.ENV.A1, subtype D/A, NIH # 11517 (infant); previously published ref 18; cited from earlier work
[7] = tested on: HIV-1 Env pseudovirus pTHRO4156 clone 18; conditions: pTHRO4156 clone 18, subtype B, NIH # 11037; previously published ref 18; cited from earlier work
[8] = tested on: HIV-1 Env pseudovirus QG393.60M.ENV.B7; conditions: QG393.60M.ENV.B7, subtype A2/D, NIH # 11906; previously published ref 18; cited from earlier work
[9] = tested on: HIV-1 Env pseudovirus QB726.70M.ENV.C4; conditions: QB726.70M.ENV.C4, subtype A, NIH # 11888; previously published ref 18; cited from earlier work
[10] = tested on: HIV-1 Env pseudovirus AC10.0, clone 29; conditions: AC10.0, clone 29, subtype B, NIH # 11024; previously published ref 18; cited from earlier work
[11] = tested on: HIV-1 Env pseudovirus CAP210.2.00.E8; conditions: CAP210.2.00.E8, subtype C, NIH # 11317; previously published ref 18; cited from earlier work
[12] = tested on: HIV-1 Env pseudovirus p1058_11.B11.1550; conditions: p1058_11.B11.1550, subtype B, NIH # 11563, R5X4-tropic; previously published ref 18; cited from earlier work
[13] = tested on: HIV-1 Env pseudovirus QG393.60M.ENV.A1; conditions: QG393.60M.ENV.A1, subtype A2/D, NIH # 11905; previously published ref 18; cited from earlier work
[14] = tested on: HIV-1 Env pseudovirus SC422661.8; conditions: SC422661.8, subtype B, NIH # 11058; previously published ref 18; cited from earlier work
[15] = tested on: HIV-1 Env pseudovirus CRF02_AG clone 266; conditions: CRF02_AG clone 266, subtype A/G, NIH # 11602; previously published ref 18; cited from earlier work
[16] = tested on: HIV-1 Env pseudovirus CRF02_AG clone 278; conditions: CRF02_AG clone 278, subtype A/G, NIH # 11605; previously published ref 18; cited from earlier work
[17] = tested on: HIV-1 Env pseudovirus ZM135M.PL10a; conditions: subtype C, NIH # 11315, previously published ref 18; cited from earlier work
[18] = tested on: HIV-1 Env pseudovirus QG393.60M.ENV.B8; conditions: QG393.60M.ENV.B8, subtype A2/D, NIH # 11907; previously published ref 18; cited from earlier work
[19] = tested on: HIV-1 Env pseudovirus QD435.100M.ENV.E1; conditions: QD435.100M.ENV.E1, subtype D, NIH # 11918; previously published ref 18; cited from earlier work
[20] = tested on: panel of 51 Env-pseudotyped viruses; test: microbe, parasite or virus in culture; assay type: cell-based; conditions: Human immunodeficiency virus 1, read-out: IC50 range over the pseudovirus panel
[21] = tested on: HIV-1 Env pseudovirus QF495.23M.ENV.B2; conditions: QF495.23M.ENV.B2, subtype A, NIH # 11892; previously published ref 18; cited from earlier work
[22] = tested on: HIV-1 Env pseudovirus QF495.23M.ENV.A1; conditions: QF495.23M.ENV.A1, subtype A, NIH # 11890; previously published ref 18; cited from earlier work

In the case of `CC1(C)CC(NC(=O)C(=O)Nc2ccc(Cl)cc2)CC(C)(C)N1` [NBD-556], the “inhibition of cell-to-cell HIV-1 transmission” value (H9/HIV-1IIIB) is given as “failed to do so”.

In the case of `Cc1nc([C@H](NC(=O)c2ccc(-c3ccc(Cl)cc3)[nH]2)[C@@H]2CCCCN2)sc1CO` [NBD-11021A2], the IC50 [1] is listed as 1000 ± 100 nM, the IC50 [2] is listed as 600 ± 70 nM and the IC50 [3] is listed as 2700 ± 200 nM. For the same molecule, the IC50 [4] was 1800 ± 500 nM, the IC50 [5] was 520 ± 100 nM and the IC50 [6] was 2800 ± 600 nM. For the same molecule, the IC50 [7] was 1000 ± 200 nM, the IC50 [8] was 800 ± 300 nM and the IC50 [9] was 1300 ± 300 nM. For the same molecule, the IC50 [10] was 320 ± 10 nM, the IC50 [11] was 2800 ± 700 nM and the IC50 [12] was 1100 ± 800 nM. The IC50 [13] was 410 ± 200 nM, the IC50 [14] was 330 ± 10 nM and the IC50 [15] was 1000 ± 200 nM. The IC50 [16] was 1300 ± 500 nM, the IC50 [17] was 2700 ± 1200 nM and the IC50 [18] was 480 ± 200 nM. The IC50 [19] was 3700 ± 100 nM, the IC50 [20] was 320 to 4400 nM and the IC50 [21] was 600 ± 400 nM. For the same molecule, the IC50 [22] was 1300 ± 400 nM.

Reference: publication PMC5079829 (Bioorganic & medicinal chemistry, 2016)
